Source: PubChem BioAssay AID180 (DTP/NCI, 2004)
“And” between values parts separate entries of the source, which are not always exact repeats. Equal values may be shown once.

System: BDF1 mice, Adenocarcinoma 755 s.c., tumor weight T/C
Assay: NCI In Vivo Anticancer Drug Screen. Data for tumor model Adenocarcinoma 755 (subcutaneous) in B6D2F1 (BDF1) mice
Conditions: endpoint: mean tumor weight, higher = larger tumour
Summary of the method: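 In vivo antitumor screen on a transplantable tumor line. Result equals the measure in compound-treated animals divided by the same measure in vehicle controls.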

[1] = dose: 500.0 mg/kg/injection, schedule: Q01DX011 (ip), vehicle: carboxymethylcellulose (CMC)

CC(=O)OCCOc1ccc(C(C)(C)C)cc1 was tested. Which T/C (dose: 57.0 mg/kg/injection, schedule: Q01DX011 (ip), vehicle: methylcellulose (MC)) did it give?
The T/C was 57 % of control.

What about the T/C (dose: 113.0 mg/kg/injection, schedule: Q01DX011 (ip), vehicle: carboxymethylcellulose (CMC)) of the same molecule?
The T/C was 122 % of control.

And the T/C (dose: 113.0 mg/kg/injection, schedule: Q01DX011 (ip), vehicle: methylcellulose (MC))?
The T/C was 83 % of control.

What about the T/C (dose: 225.0 mg/kg/injection, schedule: Q01DX011 (ip), vehicle: carboxymethylcellulose (CMC)) of the same molecule?
Its T/C is 171 % of control.

What about the T/C (dose: 225.0 mg/kg/injection, schedule: Q01DX011 (ip), vehicle: methylcellulose (MC)) of the same molecule?
Its T/C is 47 % of control.

And the T/C (dose: 450.0 mg/kg/injection, schedule: Q01DX011 (ip), vehicle: carboxymethylcellulose (CMC))?
The T/C was 107 % of control.

What about the T/C [1] of the same molecule?
Its T/C is 70 % of control.

What about the T/C (dose: 600.0 mg/kg/injection, schedule: Q01DX011 (ip), vehicle: carboxymethylcellulose (CMC)) of the same molecule?
The T/C was 65 % of control.

For NC(C=O)C(O)C(O)C(O)CO (stereo not given), which T/C (dose: 250.0 mg/kg/injection, schedule: Q01DX011 (ip), vehicle: carboxymethylcellulose (CMC)) is on record?
Its T/C is 104 % of control and 204 % of control.

What about the T/C [1] of the same molecule?
The T/C was 225 % of control.

And the T/C (dose: 1000.0 mg/kg/injection, schedule: Q01DX011 (ip), vehicle: carboxymethylcellulose (CMC))?
Its T/C is 102 % of control and 110 % of control.

What about the T/C (dose: 2000.0 mg/kg/injection, schedule: Q01DX011 (ip), vehicle: methylcellulose (MC)) of the same molecule?
Its T/C is 89 % of control.

What about the T/C (dose: 2500.0 mg/kg/injection, schedule: Q01DX011 (ip), vehicle: methylcellulose (MC)) of the same molecule?
The T/C was 72 % of control.

With CC(=O)[C@H]1CC[C@H]2[C@@H]3CCC4=CC(=O)[C@H](C)C[C@]4(C)[C@@]3(F)C(=O)C[C@]12C as the molecule, how does the T/C (dose: 1.5 mg/kg/injection, schedule: Q01DX011 (sc), vehicle: steriod suspending solution) read?
Its T/C is 120 % of control.

And the T/C (dose: 3.12 mg/kg/injection, schedule: Q01DX011 (sc), vehicle: steriod suspending solution)?
Its T/C is 77 % of control.

And the T/C (dose: 6.0 mg/kg/injection, schedule: Q01DX011 (sc), vehicle: steriod suspending solution)?
Its T/C is 69 % of control.

And the T/C (dose: 6.25 mg/kg/injection, schedule: Q01DX011 (sc), vehicle: steriod suspending solution)?
The T/C was 79 % of control.

And the T/C (dose: 12.0 mg/kg/injection, schedule: Q01DX011 (sc), vehicle: steriod suspending solution)?
Its T/C is 36 % of control and 56 % of control.

And the T/C (dose: 12.5 mg/kg/injection, schedule: Q01DX011 (sc), vehicle: steriod suspending solution)?
The T/C was 79 % of control.

What about the T/C (dose: 25.0 mg/kg/injection, schedule: Q01DX011 (sc), vehicle: steriod suspending solution) of the same molecule?
The T/C was 36 % of control and 47 % of control and 58 % of control.

What about the T/C (dose: 50.0 mg/kg/injection, schedule: Q01DX011 (sc), vehicle: steriod suspending solution) of the same molecule?
Its T/C is 33 % of control and 39 % of control.

What about the T/C (dose: 51.0 mg/kg/injection, schedule: Q01DX011 (sc), vehicle: steriod suspending solution) of the same molecule?
The T/C was 21 % of control.

What about the T/C (dose: 75.0 mg/kg/injection, schedule: Q01DX011 (sc), vehicle: steriod suspending solution) of the same molecule?
The T/C was 21 % of control.

What about the T/C (dose: 100.0 mg/kg/injection, schedule: Q01DX011 (sc), vehicle: steriod suspending solution) of the same molecule?
The T/C was 9 % of control and 16 % of control and 22 % of control.

What about the T/C (dose: 200.0 mg/kg/injection, schedule: Q01DX011 (sc), vehicle: steriod suspending solution) of the same molecule?
The T/C was 6 % of control and 14 % of control.

What does the source list for OCCOCCN1CCN(CCCN2c3ccccc3Sc3ccc(C(F)(F)F)cc32)CC1?
T/C (dose: 5.0 mg/kg/injection, schedule: Q01DX011 (ip), vehicle: saline): 54 % of control and 75 % of control; T/C (dose: 20.0 mg/kg/injection, schedule: Q01DX011 (ip), vehicle: saline): 12 % of control and 29 % of control

What does the source list for CNc1ncnc2c1ncn2C1CCCO1 (stereo not given)?
T/C (dose: 50.0 mg/kg/injection, schedule: Q01DX011 (ip), vehicle: saline): 119 % of control; T/C (dose: 100.0 mg/kg/injection, schedule: Q01DX011 (ip), vehicle: saline): 86 % of control; T/C (dose: 200.0 mg/kg/injection, schedule: Q01DX011 (ip), vehicle: saline): 51 % of control

What does the source list for Cc1ccccc1Nc1cc(Cl)nc(N)n1?
T/C (dose: 15.0 mg/kg/injection, schedule: Q01DX011 (ip), vehicle: methylcellulose (MC)): 73 % of control; T/C (dose: 31.0 mg/kg/injection, schedule: Q01DX011 (ip), vehicle: methylcellulose (MC)): 85 % of control; T/C (dose: 62.0 mg/kg/injection, schedule: Q01DX011 (ip), vehicle: methylcellulose (MC)): 75 % of control; T/C (dose: 125.0 mg/kg/injection, schedule: Q01DX011 (ip), vehicle: methylcellulose (MC)): 120 % of control; T/C (dose: 250.0 mg/kg/injection, schedule: Q01DX011 (ip), vehicle: methylcellulose (MC)): 93 % of control

Which T/C (dose: 12.62 mg/kg/injection, schedule: Q01DX011 (ip), vehicle: carboxymethylcellulose (CMC)) does the source give for Cc1nc2nc(N)nc(N)c2nc1C here?
Its T/C is 67 % of control.

What about the T/C (dose: 15.63 mg/kg/injection, schedule: Q01DX011 (ip), vehicle: carboxymethylcellulose (CMC)) of the same molecule?
The T/C was 50 % of control.

And the T/C (dose: 62.5 mg/kg/injection, schedule: Q01DX011 (ip), vehicle: carboxymethylcellulose (CMC))?
The T/C was 122 % of control and 123 % of control.

And the T/C (dose: 125.0 mg/kg/injection, schedule: Q01DX011 (ip), vehicle: carboxymethylcellulose (CMC))?
Its T/C is 58 % of control.

For CC1CN1P(=S)(N1CCCCC1)N1CC1C (stereo not given), which T/C (dose: 25.0 mg/kg/injection, schedule: Q01DX011 (ip), vehicle: carboxymethylcellulose (CMC)) is on record?
Its T/C is 51 % of control.

What about the T/C (dose: 50.0 mg/kg/injection, schedule: Q01DX011 (ip), vehicle: carboxymethylcellulose (CMC)) of the same molecule?
Its T/C is 150 % of control.

What about the T/C (dose: 56.0 mg/kg/injection, schedule: Q01DX011 (ip), vehicle: carboxymethylcellulose (CMC)) of the same molecule?
The T/C was 64 % of control.

What about the T/C (dose: 100.0 mg/kg/injection, schedule: Q01DX011 (ip), vehicle: carboxymethylcellulose (CMC)) of the same molecule?
The T/C was 121 % of control.

What about the T/C (dose: 112.0 mg/kg/injection, schedule: Q01DX011 (ip), vehicle: carboxymethylcellulose (CMC)) of the same molecule?
Its T/C is 19 % of control.

What about the T/C (dose: 200.0 mg/kg/injection, schedule: Q01DX011 (ip), vehicle: carboxymethylcellulose (CMC)) of the same molecule?
The T/C was 102 % of control.
